Laboratory results reported in patent US5622948A, “Pyrrole pyridazine and pyridazinone anti-inflammatory agents” (Syntex (U.S.A.) Inc., priority 1994, dated 1997).
Like-named read-outs stand apart in the source and are kept apart here.

Key:
COX II = biological target: T1, COX II (Homo sapiens, UniProt P35354); assay: PGE2 production in human adherent monocytes stimulated with LPS; format: cell-based; conditions: EIA, read-out: COX II IC50, inhibition of PGE2 production
T1 sequence (P35354 18-604): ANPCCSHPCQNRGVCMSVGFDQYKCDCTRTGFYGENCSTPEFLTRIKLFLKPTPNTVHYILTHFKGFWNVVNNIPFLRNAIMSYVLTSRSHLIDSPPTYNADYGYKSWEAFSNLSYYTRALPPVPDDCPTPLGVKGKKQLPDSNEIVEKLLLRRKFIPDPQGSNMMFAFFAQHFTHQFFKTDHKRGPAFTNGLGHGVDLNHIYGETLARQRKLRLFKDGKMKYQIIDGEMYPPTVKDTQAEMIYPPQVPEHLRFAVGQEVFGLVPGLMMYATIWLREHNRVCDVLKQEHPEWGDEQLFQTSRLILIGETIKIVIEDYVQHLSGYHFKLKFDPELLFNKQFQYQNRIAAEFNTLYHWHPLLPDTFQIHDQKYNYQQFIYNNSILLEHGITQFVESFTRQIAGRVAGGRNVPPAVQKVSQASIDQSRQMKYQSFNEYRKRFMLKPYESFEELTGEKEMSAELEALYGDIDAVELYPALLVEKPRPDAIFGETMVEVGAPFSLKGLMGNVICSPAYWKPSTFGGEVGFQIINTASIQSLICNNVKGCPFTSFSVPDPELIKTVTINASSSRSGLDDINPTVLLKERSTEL
Protocol: (§1) A summary of activities of Compound (16) against COX I and COX II in cell-free enzyme preparations and whole cells is presented in Table 1. The following abbreviations are used: AA is arachidonic acid, IL-1 is interleukin 1, PMA is phorbol myristate acetate, A23187 is a calcium ionophore (Sigma), BSA is bovine serum albumin and LPS is a lipopolysaccharide (Sigma).
Human adherent monocytes
(§2) 30 min incubation with Compound (16)
18 hr stimulation with LPS
a) 10 min activation, A23187 + PMA
washing, transfer to fresh media
(§3) b) 30 min activation, A23187 + PMA
c) 10 min activation, 20 μM AA
(§4) d) 30 min activation, 20 μM AA
(§5) EIA determination of PGE2

COX I [1] = assay: PGE2 production in freshly isolated human monocytes; format: cell-based; conditions: EIA, cells may be expressing COX II constitutively, read-out: COX I IC50, inhibition of PGE2 production
Protocol: as §1
Human monocytes 30 min incubation with Compound (16)
freshly isolated a) 10 min activation, A23187 + PMA
These cells may be expressing COX II
as §3
constitutively c) 10 min activation, 20 μM AA
as §4, §5

[2] = test system: PGE2 levels in the air-pouch exudate; assay: PGE2 in exudate of carrageenan-induced inflammation (air-pouch model) in rats; format: in vivo, rat; conditions: Rattus norvegicus; 0.1-30 mg/kg, relative to vehicle; read-out: IC50, inhibition of PGE2 levels in the exudate
[3] = Pharmacokinetics in rat and monkey; format: in vivo
From the text: The pharmacokinetics of Compound (16) was studied in rat and monkey after intravenous and oral administration in solution (ethanol/polyethylene glycol/water, 1/5/4) or SSV.

[4] = test system: phenylquinone-induced writhing; assay: Phenylquinone-induced Mouse Writhing Assay; format: in vivo; conditions: 20 or 60 minutes prior to phenylquinone
Protocol: Analgetic activity is determined by the Phenylquinone-induced Mouse Writhing Assay, Hendershot, et al., J. Pharmacol. Exp. Ther., 125:237-240 (1959). This assay is one of several acute assays which have been used to assess the analgesic activity of NSAIDs. At the appropriate time after test material administration, phenylquinone is injected intraperitoneally to mice, inducing a series of characteristic "writhing" responses, which are counted between 10 and 20 minutes after phenylquinone injection.
In this assay, Compound (16), suspended in SSV, was tested over the dose range of 1-100 mg/kg administered 20 or 60 minutes prior to phenylquinone challenge.

COX I [5] = biological target: T2, COX I (Homo sapiens, UniProt P23219); assay: radiometric assay, COX I inhibition (human recombinant, baculovirus expressed, partially purified); format: biochemical; design: A 2 Kb fragment containing the coding region of COX I; made in house; host or cells: Sf9 insect cells, baculovirus (cDNA from Oxford Biomedical Research); conditions: very low substrate concentration
[6] = test system: adjuvant-induced arthritis pain; assay: adjuvant-induced arthritis pain model in the rat; format: in vivo; conditions: preliminary test at 0.1, 1.0, 10 and 30 mg/kg, read-out: doses at which significant and prolonged analgesia is obtained
Protocol: Compound (16) was also evaluated using an adjuvant-induced arthritis pain model in the rat, in which pain is assessed by eliciting a vocal response upon squeezing or flexing an inflamed ankle joint.

COX I [7] = biological target: T2, COX I; assay: TxB2 production in human whole blood activated with ionophore (COX I); conditions: COX I IC50, inhibition of TxB2 production
[8] = two week range finding toxicity study in rats; format: in vivo, rat
Protocol: A two week range finding study in rats was carried out at daily doses of 10, 30, 100 and 300 mg/kg of Compound (16).

COX I [9] = biological target: T2, COX I; assay: thromboxane B2 production in washed human platelets; format: cell-based; design: A 2 Kb fragment containing the coding region of COX I; made in house; host or cells: Sf9 insect cells, baculovirus (cDNA from Oxford Biomedical Research); conditions: EIA, read-out: COX I IC50, inhibition of thromboxane B2 production
Protocol: as §1, §2
b) 10 min activation, 20 μM AA
EIA determination of TxB2

[10] = 30 min incubation; a) 10 min activation, A23187 + PMA
[11] = 30 min incubation; b) 30 min activation, A23187 + PMA
[12] = 30 min incubation; c) 10 min activation, 20 μM AA
[13] = 30 min incubation; d) 30 min activation, 20 μM AA
[14] = 10, 30, 100 and 300 mg/kg daily, two weeks

T2 sequence (P23219 24-599): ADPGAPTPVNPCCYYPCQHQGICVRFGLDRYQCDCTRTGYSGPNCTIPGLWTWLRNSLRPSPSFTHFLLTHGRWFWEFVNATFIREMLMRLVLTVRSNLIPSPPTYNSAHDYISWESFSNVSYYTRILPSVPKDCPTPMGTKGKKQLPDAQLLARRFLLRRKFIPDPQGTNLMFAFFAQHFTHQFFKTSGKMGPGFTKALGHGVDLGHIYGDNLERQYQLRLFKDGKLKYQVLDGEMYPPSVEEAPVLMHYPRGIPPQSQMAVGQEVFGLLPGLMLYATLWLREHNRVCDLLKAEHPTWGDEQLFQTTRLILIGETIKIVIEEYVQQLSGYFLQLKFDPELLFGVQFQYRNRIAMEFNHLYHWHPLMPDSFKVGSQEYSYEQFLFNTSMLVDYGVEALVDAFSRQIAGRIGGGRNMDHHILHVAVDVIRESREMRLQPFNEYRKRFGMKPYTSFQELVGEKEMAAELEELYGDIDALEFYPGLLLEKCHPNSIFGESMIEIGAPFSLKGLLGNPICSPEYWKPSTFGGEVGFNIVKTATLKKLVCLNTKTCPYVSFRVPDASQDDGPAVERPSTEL

For `Cc1cc(Cc2ccc(=O)[nH]n2)n(C)c1C(=O)c1ccc(Cl)cc1` [Compound 16, 6-[1,4-dimethyl-5-(4chloro-benzoyl)-1H-pyrrol-2-ylmethyl]-2H-pyridazin-3-one], which IC50 (COX II; [10]) is on record?
The IC50 was 200 nM.

What about the IC50 (COX II; [11]) of the same compound?
Its IC50 is less than 100 nM.

What about the IC50 (COX II; [12]) of the same compound?
The IC50 was 2800 nM.

And the IC50 (COX II; [13])?
Its IC50 is 540 nM.

And the IC50 (COX I [1]; [10])?
The IC50 was 5.2 µM.

What about the IC50 (COX I [1]; [11]) of the same compound?
The IC50 was 0.31 µM.

What about the IC50 (COX I [1]; [12]) of the same compound?
Its IC50 is 4.6 µM.

What about the IC50 (COX I [1]; [13]) of the same compound?
Its IC50 is greater than 10 µM.

What about the ED50 [2] of the same compound?
Its ED50 is 0.7 to 2 mg/kg.

What about the dose proportionality ([3]; 1-300 mg/kg) of the same compound?
The dose proportionality was “exhibited dose proportionality over a broad range of doses”.

What about the half-life ([3]; in vivo, after intravenous dosing) of the same compound?
Its half-life is 120 to 180 min.

And the bioavailability ([3]; in vivo, rats and monkeys, oral)?
The bioavailability was 40 to 80%.

What about the “inhibition of phenylquinone-induced writhing” value ([4]; 100 mg/kg, in SSV) of the same compound?
Its value is 100%.

And the ED50 ([4]; Mus musculus, 1-100 mg/kg)?
Its ED50 is roughly 10 mg/kg.

And the “type of inhibition of COX I” value (COX I [5])?
The value was “weak, competitive, non-time dependent inhibition”.

What about the minimal effective dose [6] of the same compound?
Its minimal effective dose is no less than 10 mg/kg.

What about the IC50 (COX I [7]; 15 min incubation with compound, 30 min with A23187 (ionophore), RIA determination of TxB2) of the same compound?
Its IC50 is 5.6 µM.

What about the IC50 (COX I [7]; 30 min incubation, 15 min activation, A23187, EIA determination of TxB2) of the same compound?
The IC50 was 3 µM.

What about the clinical chemistry [8, 14] of the same compound?
Its clinical chemistry is “No clinical chemistry abnormalities were detected”.

And the clinical signs [8, 14]?
The clinical signs was “no adverse clinical signs were noted”.

What about the gross necropsy findings [8, 14] of the same compound?
Its gross necropsy findings is “no drug-related gross necropsy findings”.

And the histopathological findings [8, 14]?
Its histopathological findings is “no histopathological findings”.

What about the “lesions in the stomach or intestines” value [8, 14] of the same compound?
Its value is “no lesions were noted in the stomach or intestines”.

What about the “intestinal lesions in toxicology range-finding study” value ([8]; up to 300 mg/kg/day for 14 days) of the same compound?
Its value is “no intestinal lesions were observed”.

And the IC50 (COX I [9]; 30 min incubation; a) 10 min activation, A23187 (calcium ionophore))?
Its IC50 is 2300 nM.

And the IC50 (COX I [9]; 30 min incubation; b) 10 min activation, 20 μM AA)?
The IC50 was greater than 100000 nM.
